Tests used:
morningglory = assay: Test A postemergence; type: in vivo, Ipomoea spp.; conditions: Ipomoea, post-emergence, 240 h, read-out: Plant response rating, Morningglory
Procedure, shortened: (§1)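 Scoring: eye-based comparison with untreated controls, 0 for no effect through 100 for complete control, at about day 10. Treatments: directed soil spray preemergence; foliar spray postemergence on 2–10 cm plants at the one- to two-leaf stage. Medium: loam soil with sand.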

corn = assay: Test C postemergence; type: in vivo, Zea mays; conditions: Zea mays, post-emergence
Procedure, shortened: (§2)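 Whole-plant greenhouse test with surfactant-containing solvent formulation, applied preemergence to sown loam–sand pots or postemergence to 2–18 cm plants. Scored by eye 13 to 15 days on, 0–100 scale.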

pigweed [1] = assay: Test A postemergence; type: in vivo, Amaranthus retroflexus; conditions: Amaranthus retroflexus, post-emergence, read-out: Plant response rating, Pigweed
Procedure, shortened: as §1

waterhemp = assay: Test C postemergence; type: in vivo, Amaranthus rudis
Procedure, shortened: as §2

Heteranthera limosa = assay: Test B flooded paddy test; type: in vivo; conditions: Heteranthera limosa, Flood, 250 g ai/ha; 0 to 100 scale where 0 is no effect and 100 is complete control; read-out: Plant response rating, Ducksalad
Procedure, shortened: (§3)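 Flooded to 3 cm at the 2-leaf stage, pots received compound through the paddy water and were kept at that depth under greenhouse conditions. After 13–15 days, effect was rated by eye relative to controls, 0 = none and 100 = complete control.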

barnyardgrass [2] = assay: Test C postemergence; type: in vivo, Echinochloa crus-galli; conditions: Echinochloa crus-galli, post-emergence
Procedure, shortened: as §2

barnyardgrass [3] = assay: Test B flooded paddy test; type: in vivo, Echinochloa crus-galli; conditions: Echinochloa crus-galli; Flood, 250 g ai/ha; 0 to 100 scale where 0 is no effect and 100 is complete control; read-out: Plant response rating, Barnyardgrass
Procedure, shortened: as §3

large (Lg) crabgrass = assay: Test C postemergence; type: in vivo, Digitaria sanguinalis; conditions: Digitaria sanguinalis, post-emergence
Procedure, shortened: as §2

oilseed rape = assay: Test C postemergence; type: in vivo, Brassica napus
Procedure, shortened: as §2

wheat, winter = assay: Test C postemergence; type: in vivo, Triticum aestivum
Procedure, shortened: as §2

velvetleaf = assay: Test A preemergence; type: in vivo, Abutilon theophrasti
Procedure, shortened: as §1

sedge, umbrella = assay: Test B flooded paddy test; type: in vivo, Cyperus difformis; conditions: Cyperus difformis, Flood, 250 g ai/ha; 0 to 100 scale where 0 is no effect and 100 is complete control; read-out: Plant response rating, Sedge, Umbrella
Procedure, shortened: as §3

pigweed [4] = assay: Test A preemergence; type: in vivo, Amaranthus retroflexus
Procedure, shortened: as §1

chickweed = assay: Test C postemergence; type: in vivo, Stellaria media; conditions: Stellaria media, post-emergence
Procedure, shortened: as §2

johnsongrass = assay: Test C postemergence; type: in vivo, Sorghum halepense
Procedure, shortened: as §2

[5] = 125 g ai/ha, 0 to 100 scale, 0 no effect, 100 complete control
[6] = 500 g ai/ha, 0 to 100 scale where 0 is no effect and 100 is complete control
[7] = 31 g ai/ha, postemergence, visual rating, scale 0 to 100 (0 no effect, 100 complete control), 13 to 15 days

SMILES: N#Cc1cccc(Oc2ncc(Cl)cn2)c1-n1cc(OCC(F)(F)F)cn1 [Compound 274, 3-[(5-chloro-2-pyrimidinyl)oxy]-2-[4-(2,2,2-trifluoroethoxy)-1H-pyrazol-1-yl]benzonitrile]
- pest or weed control at 125 g/ha (morningglory; [5]): 90%
- pest or weed control at 500 g/ha (morningglory; [6]): 100%
- plant injury at 16 g/ha (corn; 16 g ai/ha, postemergence, 0 is no effect, 100 is complete control, read-out: Plant response rating (0 to 100), Corn): 5%
- plant injury at 31 g/ha (corn; 31 g ai/ha, postemergence, visual rating, scale 0 to 100 (0 no effect, 100 complete control), 13 to 15 days, read-out: Corn plant response rating): 10%
- Corn plant response rating (crop injury, 0 = no effect, 100 = complete kill) at 125 g/ha (corn; 125 g ai/ha, postemergence, visual rating, scale 0 to 100 (0 no effect, 100 complete control)): 15%
- Corn plant response rating (crop injury, 0 = no effect, 100 = complete kill) at 62 g/ha (corn; Postemergence, 62 g ai/ha, scale 0 to 100 (0 no effect, 100 complete control), 13 to 15 days): 10%
- pest or weed control at 125 g/ha (pigweed [1]; [5]): 100%
- pest or weed control at 500 g/ha (pigweed [1]; [6]): 100%
- Waterhemp plant response rating (waterhemp; [7]): 85
- pest or weed control at 16 g/ha (waterhemp; Amaranthus tuberculatus, post-emergence, 16 g ai/ha, postemergence, 0 is no effect, 100 is complete control, read-out: Plant response rating (0 to 100), Waterhemp): 70%
- pest or weed control at 125 g/ha (waterhemp; Amaranthus tuberculatus, post-emergence, 125 g ai/ha, postemergence, visual rating, scale 0 to 100 (0 no effect, 100 complete control), read-out: Plant response rating, Waterhemp): 98%
- pest or weed control at 62 g/ha (waterhemp; Amaranthus tuberculatus, post-emergence, Postemergence, 62 g ai/ha, scale 0 to 100 (0 no effect, 100 complete control), 13 to 15 days, read-out: Plant response rating, Waterhemp): 95%
- pest or weed control at 250 g/ha (Heteranthera limosa): 95%
- pest or weed control at 16 g/ha (barnyardgrass [2]; 16 g ai/ha, postemergence, 0 is no effect, 100 is complete control, read-out: Plant response rating (0 to 100), Barnyardgrass): 5%
- pest or weed control at 31 g/ha (barnyardgrass [2]; 31 g ai/ha, postemergence, visual rating, scale 0 to 100 (0 no effect, 100 complete control), 13 to 15 days, read-out: Barnyardgrass plant response rating): 10%
- pest or weed control at 125 g/ha (barnyardgrass [2]; 125 g ai/ha, postemergence, visual rating, scale 0 to 100 (0 no effect, 100 complete control), read-out: Plant response rating, Barnyardgrass): 15%
- pest or weed control at 62 g/ha (barnyardgrass [2]; Postemergence, 62 g ai/ha, scale 0 to 100 (0 no effect, 100 complete control), 13 to 15 days, read-out: Plant response rating, Barnyardgrass): 10%
- pest or weed control at 250 g/ha (barnyardgrass [3]): 65%
- pest or weed control at 16 g/ha (large (Lg) crabgrass; 16 g ai/ha, postemergence, 0 is no effect, 100 is complete control, read-out: Plant response rating (0 to 100), Crabgrass, Large): 5%
- pest or weed control at 31 g/ha (large (Lg) crabgrass; 31 g ai/ha, postemergence, visual rating, scale 0 to 100 (0 no effect, 100 complete control), 13 to 15 days, read-out: Crabgrass, Large plant response rating): 5%
- pest or weed control at 125 g/ha (large (Lg) crabgrass; 125 g ai/ha, postemergence, visual rating, scale 0 to 100 (0 no effect, 100 complete control), read-out: Plant response rating, Crabgrass, Large): 60%
- pest or weed control at 62 g/ha (large (Lg) crabgrass; Postemergence, 62 g ai/ha, scale 0 to 100 (0 no effect, 100 complete control), 13 to 15 days, read-out: Plant response rating, Crabgrass, Large): 30%
- Oilseed Rape plant response rating (oilseed rape; [7]): 80
- plant injury at 16 g/ha (oilseed rape; Brassica napus, post-emergence, 16 g ai/ha, postemergence, 0 is no effect, 100 is complete control, read-out: Plant response rating (0 to 100), Oilseed Rape): 60%
- plant injury at 125 g/ha (oilseed rape; Brassica napus, post-emergence, 125 g ai/ha, postemergence, visual rating, scale 0 to 100 (0 no effect, 100 complete control), read-out: Plant response rating, Oilseed Rape): 90%
- plant injury at 62 g/ha (oilseed rape; Brassica napus, post-emergence, Postemergence, 62 g ai/ha, scale 0 to 100 (0 no effect, 100 complete control), 13 to 15 days, read-out: Plant response rating, Oilseed Rape): 85%
- Wheat plant response rating (wheat, winter; [7]): 5
- plant injury at 16 g/ha (wheat, winter; Triticum aestivum, post-emergence, 16 g ai/ha, postemergence, 0 is no effect, 100 is complete control, read-out: Plant response rating (0 to 100), Wheat): 5%
- plant injury at 125 g/ha (wheat, winter; Triticum aestivum, post-emergence, 125 g ai/ha, postemergence, visual rating, scale 0 to 100 (0 no effect, 100 complete control), read-out: Plant response rating, Wheat): 15%
- plant injury at 62 g/ha (wheat, winter; Triticum aestivum, post-emergence, Postemergence, 62 g ai/ha, scale 0 to 100 (0 no effect, 100 complete control), 13 to 15 days, read-out: Plant response rating, Wheat): 5%
- Velvetleaf plant response rating (0 to 100 scale) (velvetleaf; 125 g ai/ha): 100
- pest or weed control at 500 g/ha (velvetleaf; Abutilon theophrasti, pre-emergence, 240 h, 500 g ai/ha, 0 to 100 scale where 0 is no effect and 100 is complete control, read-out: Velvetleaf plant response rating): 100%
- pest or weed control at 250 g/ha (sedge, umbrella): 95%
- Pigweed plant response rating (0 to 100 scale) (pigweed [4]; 125 g ai/ha): 100
- pest or weed control at 500 g/ha (pigweed [4]; Amaranthus retroflexus, pre-emergence, 240 h, 500 g ai/ha, 0 to 100 scale where 0 is no effect and 100 is complete control, read-out: Pigweed plant response rating): 100%
- pest or weed control at 16 g/ha (chickweed; 16 g ai/ha, postemergence, 0 is no effect, 100 is complete control, read-out: Plant response rating (0 to 100), Chickweed): 70%
- pest or weed control at 31 g/ha (chickweed; 31 g ai/ha, postemergence, visual rating, scale 0 to 100 (0 no effect, 100 complete control), 13 to 15 days, read-out: Chickweed plant response rating): 70%
- pest or weed control at 125 g/ha (chickweed; 125 g ai/ha, postemergence, visual rating, scale 0 to 100 (0 no effect, 100 complete control), read-out: Plant response rating, Chickweed): 98%
- pest or weed control at 62 g/ha (chickweed; Postemergence, 62 g ai/ha, scale 0 to 100 (0 no effect, 100 complete control), 13 to 15 days, read-out: Plant response rating, Chickweed): 90%
- Johnsongrass plant response rating (johnsongrass; [7]): 5
- pest or weed control at 16 g/ha (johnsongrass; Sorghum halepense, post-emergence, 16 g ai/ha, postemergence, 0 is no effect, 100 is complete control, read-out: Plant response rating (0 to 100), Johnsongrass): 5%
- pest or weed control at 125 g/ha (johnsongrass; Sorghum halepense, post-emergence, 125 g ai/ha, postemergence, visual rating, scale 0 to 100 (0 no effect, 100 complete control), read-out: Plant response rating, Johnsongrass): 10%
- pest or weed control at 62 g/ha (johnsongrass; Sorghum halepense, post-emergence, Postemergence, 62 g ai/ha, scale 0 to 100 (0 no effect, 100 complete control), 13 to 15 days, read-out: Plant response rating, Johnsongrass): 5%

Reference: US9695155B2, “Herbicidal substituted pyrimidinyloxy benzene compounds” (E. I. DU PONT DE NEMOURS AND COMPANY, priority 2013, dated 2017)
